“Also recorded” adds a separate entry of the source. Read-outs that look alike come from different tables or passages of the source.
Assays:
[1] = Partitioning tracer column experiment, field soil contaminated with TCE; format: physicochemical; conditions: for Activity Coefficient, γi, in field soil: field soil contaminated with TCE
[2] = cited from earlier work
[3] = Partitioning tracer column experiment, Ottawa sand contaminated with TCE, air carrier (Example 3); conditions: for Mean Residence Times ti / Mean Residence Times ti (cc) / Activity Coefficient, γi: 0.45 cc/min; for Activity Coefficient, γi: in TCE, ideal Ki / experimental Ki; for partitioning into TCE (in words): Ottawa sand column
Procedure: Three columns were prepared for each experiment: (1) a contaminated primary column (2.5 cm×30 cm) saturated with residual water and TCE; (2) a contaminated pre-column (2.5 cm×60 cm) saturated with water and TCE; and (3) an uncontaminated secondary column (2.5 cm×30 cm) saturated only with water.
The primary column was mounted in a vertical configuration and a burette with 100 cc of deionized water was mounted above the column and attached to the inlet. The valve on the burette was opened and water was allowed to gravity drain into the column. After approximately one pore volume of water had entered the column, the burette was disconnected and the column was allowed to continue to gravity drain. Air was flushed through the column to displace any mobile water. The difference between the water injected and the water produced was used to determine the residual water saturation.
Next, approximately 5 cc of TCE, enough to produce a residual saturation, was injected into the primary column using a syringe and allowed to gravity drain. After draining overnight, the column was weighed for a more accurate estimate of TCE saturation. […] In both cases, water and TCE injection, the pre-column was treated in the same manner. However, larger amounts of water and TCE were injected since the pre-column is twice as large.
The primary column and pre-column were plumbed into the flowpath. Air flow was through the precolumn, past the reference side of the thermal conductivity detector (TCD), to the test column and then to the measurement side of the TCD. Two injectors, one for the gas tracers (Valco Instruments'switching valve with sample loop) and one for liquid tracers (heated injection port) were located between the reference side of the TCD and the test column. Flow rates were adjusted by the use of a snubber valve located between the precolumn and TCD. Flow rates were monitored and measured by a combination of rotameters and a bubble meter. The TCD measures the difference between the reference stream and the effluent of the test column. Additionally, water-filled manometers were affixed to each end of the column to measure pressure drops across the column.
Approximately 4 to 8 hours was required for the air stream to equilibrate and for a stable baseline to be established. When the baseline was stable, tracer injections began. Data collected from the TCD were integrated and the integration values stored to computer files data acquisition software.
After the uncontaminated column experiment had been completed, the contaminated column experiments were begun. […] The mean residence time for production of each tracer was calculated from the response curves using the method of moments. This value can be expressed in minutes or converted to volume units by multiplying by the flow rate.

[4] = Tracer injection into uncontaminated secondary column (Example 3); format: physicochemical; conditions: for adsorption: inferred; for mean residence time: method of moments
Procedure: A secondary, uncontaminated column was packed and configured in the same manner as the contaminated column. The only modification made to this column was that the volume of water was equal to the volume of water plus TCE in the primary column. This secondary column was used to observe tracer behavior in an uncontaminated environment.
Before tracer injection began in the primary column, argon and C6 F12 were injected into the secondary column. Their breakthrough curves are plotted in FIG. 3. Using this procedure, the gas saturation in the secondary column would be similar to that in the primary column. The secondary column was first allowed to equilibrate. […] The C6 F12 was injected as a liquid through the heated injection port. The injector temperature was 40° C.; the liquid was vaporized and moved through the column as a gas. […] When mixed with air, however, they become gases.
The mean residence times should be equal since there is no TCE for the tracer to partition into. […] The flatness of the peak is believed to be a result of the fact that the liquid vaporizes slowly.

[5] = water; cited from earlier work
[6] = Partitioning tracer column experiment, PCE-contaminated water-saturated Ottawa sand (Example 1); format: physicochemical; conditions: water-saturated sand with residual PCE
Procedure: A soil column experiment was performed to illustrate the use of partitioning tracers to detect DNAPL in a saturated zone. A Kontes preparative chromatography column made of borosilicate glass (4.8 cm ID) was packed with-mesh sizes of 60 to 200 Ottawa sand and saturated with water at 23° C. The length of this sandpack was 12.24 cm. The porosity and intrinsic permeability to water were measured and found to be 0.329 and 5.84 Darcy, respectively. […] Two alcohol tracers were added to the water and 0.52 pore volumes of water containing these tracers were injected at 0.316 ml/min followed by several more pore volumes of water until the alcohols could no longer be detected in the effluent. […] The partition coefficients of each of these alcohols were determined by equilibrating samples containing in the range of 100 to 1,000 mg/l of both alcohols with equal volumes of water and PCE and measuring the alcohol concentrations in each phase using a gas chromatograph. […]
The separation of the two curves gives an unmistakable signal that the sand is contaminated with PCE. […] This value agrees with the value measured from a mass balance on the PCE within the experimental error of each of the measurements. The tracer curves were then numerically simulated using this value and the measured partition coefficients and these are the curves shown in FIG. 1. […]

[7] = Partitioning tracer column experiment after surfactant remediation of the sand (Example 2); format: physicochemical; conditions: no NAPL present
Source text: The contaminated sand from Example 1 was cleaned by flushing the sand with an aqueous solution of surfactant until all the trichloroethene was removed to thereby simulate a successful remediation. The procedure of Example 1 was then repeated.

[8] = Batch equilibrium measurement of the partition coefficient with TCE; format: physicochemical
Source text: Since a rate dependence was observed, the rate was lowered to 0.08 cc/min and the experiment repeated for C4 F8. In addition, a batch equilibrium measurement of the partition coefficient was made for this tracer. […] The residence time at 0.45 cc/min is about two hours and several times this may be required for equilibrium partitioning. As the partition coefficient increases, so does the residence time, so the heavier tracers should be less effected by nonequilibrium partitioning. In any case, once suitable tracers have been identified, as has been done here, either batch experiments or experiments at low rates or in longer columns (to give long residence times) can be conducted to determine the equilibrium partitioning coefficients needed for field application (assuming the residence time for the field test is long compared to the column test).

Compound	Activity Coefficient, γi, in field soil [1]	Vapor Press ([2]; @ 25 ° C.)	Mean Residence Times ti ([3]; Ottawa sand, TCE)	Mean Residence Times ti (cc) ([3]; Ottawa sand, TCE)	Activity Coefficient, γi ([3]; Ottawa sand)	also measured
FC1=C(F)C(F)(F)C(F)(F)C1(F)F [C5 F8, Octafluorocyclopentene]	17.2	12.7 psi	235.0 min	105.8 cc	20.3	–
[Ar] [Argon]	–	–	93.2 min	41.9 cc	–	adsorption [4]: negligible; mean residence time [4]: 45 cc
ClC=C(Cl)Cl [TCE, trichloroethylene]	–	–	–	–	–	vapor pressure ([2]; 20° C.): 1.16 psi; aqueous solubility [5]: 1385 milligrams/liter
FC(F)(F)C1(F)C(F)(F)C(F)(F)C(F)(F)C(F)(C(F)(F)F)C1(F)F (stereo not shown) [C8 F16, perfluoro-1,3-dimethylcyclohexane]	89.7	0.67 psi	1055.0 min	474.8 cc	63.1	–
dodecafluorodimethylcyclobutane [C6 F12]	45	7.2 psi	204.4 min	92.0 cc	52.0	factor by which mean residence time differs from argon ([3]; primary column, TCE, Ottawa sand): more than two; adsorption [4]: negligible; mean residence time [4]: 45 cc
FC(F)(F)C1(F)C(F)(F)C(F)(F)C(F)(F)C(F)(F)C1(F)F [C7 F14, perfluoromethylcyclohexane]	52.6	2.1 psi	362.6 min	163.2 cc	58.3	–
FS(F)(F)(F)(F)F [SF6, Sulfur Hexafluoride]	17.2	–	103.7 min	46.7 cc	11.6	Vapor Press ([2]; @ 21 ° C.): 334 psi; partitioning into TCE (in words) [3]: small but experimentally significant partitioning
CC(C)C(C)(C)O [DMB, 2,3dimethyl 2-butanol]	–	–	–	–	–	partitioning / retardation in PCE-contaminated column [6]: retarded relative to the IPA; tracer travel after remediation (in words) [7]: travel through the sand at the same rate
[3H]O[3H] [tritiated water]	–	–	–	–	–	partitioning / retardation in PCE-contaminated column [6]: does not partition
FC(F)(F)F [CF4, Carbon Tetrafluoride]	–	–	95.1 min	42.8 cc	–	partitioning into TCE in field soil (in words) ([1]; field soil): negligible partitioning; partitioning into TCE (in words) [3]: essentially zero; also recorded: negligible partitioning
FC1(F)C(F)(F)C(F)(F)C1(F)F [C4 F8, Octafluorocyclobutane]	20.8	–	131.4 min	59.1 cc	26.6	Vapor Press ([2]; @ 21 ° C.): 40 psi; partition coefficient, batch equilibrium [8]: about 4.7; partition coefficient at 0.08 cc/min ([3]; 0.08 cc/min, Ottawa sand, TCE): about 4.7
